Measurements from article PMC8348901, “Novel N-Substituted 3-Aryl-4-(diethoxyphosphoryl)azetidin-2-ones as Antibiotic Enhancers and Antiviral Agents in Search for a Successful Treatment of Complex Infections” (International Journal of Molecular Sciences, 2021).
Like-named read-outs stand apart in the source and are kept apart here.

Tests used:
[1] = system: Capan-1 (pancreatic adenocarcinoma); test: Cytostatic activity (cell proliferation); type: cell-based
Procedure: (§1) The 50% cytostatic inhibitory concentration (IC50) causing a 50% decrease in cell proliferation was determined for all obtained compounds toward 9 cancerous cell lines, i.e.,: Capan-1 (pancreatic adenocarcinoma), Hap1 (chronic myeloid leukemia), HCT-116 (colorectal carcinoma), NCI-H460 (lung carcinoma), DND-41 (acute lymphoblastic leukemia), HL-60 (acute myeloid leukemia), K-562 (chronic myeloid leukemia), MM.1S (multiple myeloma), Z-138 non-Hodgkin lymphoma), as well as normal retina (non-cancerous) cells (hTERT RPE-1).
(§2) All assays were performed in 96-well microtiter plates. To each well was added (5–7.5) × 10^4 tumor cells and a given amount of the tested compound. The cells were allowed to proliferate at 37 °C in a humidified, CO2-controlled atmosphere. At the end of the incubation period, the cells were counted in a Coulter counter.

MRSA HEMSA 5 = test: Oxacillin MIC reduction (adjuvant) microdilution assay; type: cell-based, Staphylococcus aureus; conditions: for Activity Gain [A]: MIC(OXA)/MIC(OXA+Cpd), compound 0.5 mM, adjuvant activity if A ≥ 4
Procedure: (§3) Since the lack of direct antibacterial activity of the obtained azetidinones was observed, all isomers trans and cis were investigated on their “adjuvant” properties, i.e., an ability to enhance the effectiveness of antibiotics against S. aureus strains. Thus, the compounds were tested in combination with the known β-lactam antibiotic, oxacillin, in the microdilution assays. The ability of the tested azetidinones to reduce minimum inhibitory concentration (MIC) of oxacillin against both, the referenced and the resistant S. aureus strains, was assessed.
(§4) The in-vitro antibacterial property and the capacity of tested compounds to increase the efficacy of antibiotics were evaluated in two Staphylococcus aureus strains, i.e., the reference clonal complex 5 (CC5) methicillin-susceptible (MSSA) strain ATCC 25923, and the methicillin-resistant (MRSA) extensively drug-resistant (XDR) clinical isolate HEMSA-5 [46].
(§5) In order to assess the increase of antibiotic efficacy, the assays were conducted by determining if/to what extent the investigated compounds reduce MICs of oxacillin by means of a serial dilution broth microplate method, in accordance with the CLSI requirements. The concentrations of compounds used in the MICs reduction assay were no greater than 1/4 of their respective MICs to ensure that cell viability was not affected by the intrinsic antibacterial activity of the molecules. Serial two-fold dilutions of oxacillin (Sigma-Aldrich; St. Louis, MI, USA, cat. no. 28221), were prepared in […] of the Mueller–Hinton broth (Merck; Darmstadt, Germany, cat. no. 1102930500). Suitable concentrations of the compounds (total volume […]) were then added. Bacterial suspensions were diluted to OD ¼ 0.5. The resulting suspensions were then diluted 1:100 and added in the volume of […] into the oxacillin serial dilutions with the compounds. The results were read after 20-h incubation at 37 °C.
(§6) The ability of compounds to improve antibiotic efficacy was expressed as the activity gain [A] parameter calculated according to the formula given in Figure 10.
(§7) Figure 10 Activity gain. MICAnt corresponds to the MIC of oxacillin in the absence of a compound tested and MICAnt + Comp refers to the MIC of oxacillin paired with a compound tested.

S. aureus ATCC 25923 = test: as above; type: cell-based, Staphylococcus aureus; conditions: for Activity Gain [A]: MIC(OXA)/MIC(OXA+Cpd), compound 0.5 mM, adjuvant activity if A ≥ 4
Procedure: as §3, §4, §5, §6, §7

[2] = system: hTERT RPE-1 normal retina (non-cancerous) cells; test: Cytostatic activity (cell proliferation); type: cell-based
Procedure: as §1, with “RPE-1). Docetaxel, etoposide and stauroporine were used as the reference compounds.” for “RPE-1).”
as §2, with “counter. The IC50 (50% inhibitory concentration) was defined as the concentration of the compound that inhibited cell proliferation by 50%.” for “counter.”

[3] = system: Hap1 (chronic myeloid leukemia); test: Cytostatic activity (cell proliferation); type: cell-based
Procedure: as §1, with “RPE-1). Docetaxel, etoposide and stauroporine were used as the reference compounds.” for “RPE-1).”
as §2, with “counter. The IC50 (50% inhibitory concentration) was defined as the concentration of the compound that inhibited cell proliferation by 50%.” for “counter.”

[4] = system: DND-41 (acute lymphoblastic leukemia); test: Cytostatic activity (cell proliferation); type: cell-based
Procedure: as §1, with “RPE-1). Docetaxel, etoposide and stauroporine were used as the reference compounds.” for “RPE-1).”
as §2, with “counter. The IC50 (50% inhibitory concentration) was defined as the concentration of the compound that inhibited cell proliferation by 50%.” for “counter.”

[5] = system: HCT-116 (colorectal carcinoma); test: Cytostatic activity (cell proliferation); type: cell-based
Procedure: as §1, with “RPE-1). Docetaxel, etoposide and stauroporine were used as the reference compounds.” for “RPE-1).”
as §2, with “counter. The IC50 (50% inhibitory concentration) was defined as the concentration of the compound that inhibited cell proliferation by 50%.” for “counter.”

[6] = system: NCI-H460 (lung carcinoma); test: Cytostatic activity (cell proliferation); type: cell-based
Procedure: as §1, with “RPE-1). Docetaxel, etoposide and stauroporine were used as the reference compounds.” for “RPE-1).”
as §2, with “counter. The IC50 (50% inhibitory concentration) was defined as the concentration of the compound that inhibited cell proliferation by 50%.” for “counter.”

[7] = oxacillin MIC in presence of 0.5 mM compound

| Compound | IC50 ([1]; Homo sapiens, CAPAN-1) [µM] | Activity Gain [A] (MRSA HEMSA 5) | Activity Gain [A] (S. aureus ATCC 25923) | IC50 ([2]; hTERT-RPE1) [µM] | IC50 ([3]; Homo sapiens, HAP1) [µM] | IC50 ([4]; DND41) [µM] | IC50 ([5]; Homo sapiens, HCT-116) [µM] | IC50 ([6]; Homo sapiens, NCI-H460) [µM] | MIC (MRSA HEMSA 5; Staphylococcus aureus, oxacillin alone, read-out: OXA MIC) [µg/mL] | MIC (S. aureus ATCC 25923; Staphylococcus aureus, ATCC25923, oxacillin alone, read-out: OXA MIC) [µg/mL] | IC50 [1] [µM] | OXA+ Cpd MIC (MRSA HEMSA 5; [7]) [µg/mL] | OXA+ Cpd MIC (S. aureus ATCC 25923; [7]) [µg/mL] | IC50 [2] [µM] | IC50 [3] [µM] | IC50 [4] [µM] | IC50 [5] [µM] | IC50 [6] [µM] |
| --- | --- | --- | --- | --- | --- | --- | --- | --- | --- | --- | --- | --- | --- | --- | --- | --- | --- | --- |
| CCOP(=O)(OCC)[C@@H]1[C@H](c2ccc(F)c(C)c2)C(=O)N1C (relative stereo) [cis-10f, cis-N-methyl-3-(4-fluoro-3-methylphenyl)-4-(diethoxyphosphoryl)azetidin-2-one] | 61.4 | 1–2 | 0.5 | > 100 | 97.9 | > 100 | > 100 | 87 |  |  |  |  |  |  |  |  |  |  |
| Cc1onc(-c2ccccc2)c1C(=O)N[C@@H]1C(=O)N2[C@@H]1SC(C)(C)[C@@H]2C(=O)O [oxacillin, reference compound] |  |  |  |  |  |  |  |  | 512 | 0.5 |  |  |  |  |  |  |  |  |
| CCOP(=O)(OCC)[C@H]1[C@H](c2cccc(F)c2)C(=O)N1Cc1ccccc1 (relative stereo) [trans-11c, trans-N-benzyl-3-(3-fluorophenyl)-4-(diethoxyphosphoryl)azetidin-2-one] | 40.1 | 1 | <0.5 | 45.9 | 56.1 | > 100 | 45.5 | 44.3 |  |  |  |  |  |  |  |  |  |  |
| CCOP(=O)(OCC)[C@@H]1[C@H](c2ccc(F)cc2)C(=O)N1Cc1ccccc1 (relative stereo) [cis-11d, cis-N-benzyl-3-(4-fluorophenyl)-4-(diethoxyphosphoryl)azetidin-2-one] | 35.9 | 1 | 1 | > 100 | 61.9 | > 100 | 54.1 | 45.9 |  |  |  |  |  |  |  |  |  |  |
| CCOP(=O)(OCC)[C@@H]1[C@H](c2ccccc2F)C(=O)N1C (relative stereo) [cis-10b, cis-N-methyl-3-(2-fluorophenyl)-4-(diethoxyphosphoryl)azetidin-2-one] | 31.9 | 1 | 0.5 | > 100 | 14.5 | > 100 | > 100 | 45.2 |  |  |  |  |  |  |  |  |  |  |
| CCOP(=O)(OCC)[C@H]1[C@H](c2ccccc2)C(=O)N1C (relative stereo) [trans-10a, trans-N-methyl-3-phenyl-4-(diethoxyphosphoryl)azetidin-2-one] |  | 1 | 1 |  |  |  |  |  |  |  | 46.2 | 512 | 0.5 | > 100 | > 100 | > 100 | > 100 | 54.6 |
| CCOP(=O)(OCC)[C@@H]1[C@H](c2ccc(F)cc2F)C(=O)N1Cc1ccccc1 (relative stereo) [cis-11e, cis-N-benzyl-3-(2,4-difluorophenyl)-4-(diethoxyphosphoryl)azetidin-2-one] | 48.9 | 1 | 0.5 | > 100 | > 100 | > 100 | > 100 | 43 |  |  |  |  |  |  |  |  |  |  |
| CCOP(=O)(OCC)[C@H]1[C@H](c2ccccc2)C(=O)N1Cc1ccccc1 (relative stereo) [trans-11a, trans-N-benzyl-3-phenyl-4-(diethoxyphosphoryl)azetidin-2-one] | 61 | 1–2 | <0.5 | > 100 | 63.6 | > 100 | > 100 | 50.9 |  |  |  |  |  |  |  |  |  |  |
